Reference: BindingDB's records for patent US9796706 (Imago Pharmaceuticals, 2017)

What was measured:
Experiment in all cases: HTRF Assay
[1] = target: Mitogen-activated protein kinase 10 (Homo sapiens, UniProt P53779)
Method: (§1) The aJNK solution (20 μl/well) was added to the plate and the plate was shaken. The enzyme was incubated with the compound at RT for 10 min.(5) ATP/substrate solution preparation: ATP and substrate stocks were thawed on ice. […] The ATP/substrate (20 μl/well) was added to the plate and the plate was shaken. The plate was incubated at RT for 15 min. Note: In an exemplary assay, the final ATP concentration was about 1 mM.(6) EDTA preparation: 30 mM EDTA was prepared using 0.5M EDTA stock and assay buffer #1. The EDTA (10 μl/well) was added to the plate to quench the enzyme reaction and the plate was shaken well.(7) Detection reagent preparation: Eu-63 and SA-XL stocks were thawed on ice. […] The Eu-63/SA-XL solution (20 μl/well) was added to the plate and the plate was shaken. The plate was incubated at RT for 1 hr before reading the plate on LJL using ratiometric method named HTRF.

[2] = target: Mitogen-activated protein kinase 8 (Homo sapiens, UniProt P45983)
Chain of Mitogen-activated protein kinase 8 (P45983 whole entry): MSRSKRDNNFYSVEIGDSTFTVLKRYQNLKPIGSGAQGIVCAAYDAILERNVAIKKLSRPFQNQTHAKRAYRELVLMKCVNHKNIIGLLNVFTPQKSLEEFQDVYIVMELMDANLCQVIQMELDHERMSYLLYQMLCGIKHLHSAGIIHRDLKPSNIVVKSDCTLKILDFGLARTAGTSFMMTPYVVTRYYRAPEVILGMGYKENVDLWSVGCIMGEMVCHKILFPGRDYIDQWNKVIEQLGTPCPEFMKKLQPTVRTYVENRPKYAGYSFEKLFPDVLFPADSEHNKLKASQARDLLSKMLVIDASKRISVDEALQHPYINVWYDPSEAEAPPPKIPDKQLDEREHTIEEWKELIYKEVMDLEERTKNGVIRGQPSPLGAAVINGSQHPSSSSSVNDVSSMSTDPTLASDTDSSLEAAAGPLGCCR
Method: as §1

[3] = target: Mitogen-activated protein kinase 9 (Homo sapiens, UniProt P45984)
Chain of Mitogen-activated protein kinase 9 (P45984 whole entry): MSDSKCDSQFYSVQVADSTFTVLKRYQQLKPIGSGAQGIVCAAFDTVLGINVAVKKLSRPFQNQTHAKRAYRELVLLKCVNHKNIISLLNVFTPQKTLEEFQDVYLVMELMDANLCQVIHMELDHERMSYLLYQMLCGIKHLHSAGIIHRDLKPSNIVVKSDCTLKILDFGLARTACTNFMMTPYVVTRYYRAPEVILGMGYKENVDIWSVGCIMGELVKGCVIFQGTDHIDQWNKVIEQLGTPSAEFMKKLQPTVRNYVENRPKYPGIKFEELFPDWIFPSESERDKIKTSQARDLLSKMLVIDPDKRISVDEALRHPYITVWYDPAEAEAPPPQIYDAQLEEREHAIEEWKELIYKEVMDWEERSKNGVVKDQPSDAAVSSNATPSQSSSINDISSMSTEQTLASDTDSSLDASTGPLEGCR
Method: as §1

Measured: IC50

Chain of Mitogen-activated protein kinase 10 (P53779 whole entry): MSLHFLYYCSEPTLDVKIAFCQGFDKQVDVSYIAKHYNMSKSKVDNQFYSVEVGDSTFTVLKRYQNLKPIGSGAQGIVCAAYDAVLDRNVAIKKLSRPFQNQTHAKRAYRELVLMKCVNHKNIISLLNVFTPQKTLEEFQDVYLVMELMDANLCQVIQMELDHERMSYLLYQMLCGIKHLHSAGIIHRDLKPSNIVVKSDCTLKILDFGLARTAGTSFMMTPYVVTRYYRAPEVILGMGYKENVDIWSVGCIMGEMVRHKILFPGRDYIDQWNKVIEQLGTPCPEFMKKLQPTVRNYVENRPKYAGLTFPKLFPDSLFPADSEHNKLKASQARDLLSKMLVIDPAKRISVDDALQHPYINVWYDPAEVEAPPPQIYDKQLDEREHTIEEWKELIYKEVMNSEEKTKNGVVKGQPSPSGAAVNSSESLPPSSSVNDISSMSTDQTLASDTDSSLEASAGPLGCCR

CN(C)CCN(C(=O)Cn1c(=O)ccc2cc(C(F)(F)F)ccc21)c1scc(Cl)c1-c1nc[nH]n1 [US9796706, Compound 158]
in the range around 5.05 µM: all assays above

O=C(Cn1c(=O)ccc2cc(C(F)(F)F)ccc21)N(CCCN1CCCC1)c1scc(Cl)c1-c1nc[nH]n1 [US9796706, Compound 162]
in the range around 5.05 µM: all assays above
